In data set [1] the test system is P388 mouse leukemia cells. Particulars: 92 h. In a few lines: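 First, library peptide stocks are diluted 250-fold in RPMI1640 with 10% heat-inactivated FBS. Next, they are mixed with P388 cells to give 1 × 10^4 cells/mL and incubated 92 h at 37 °C, 5% CO2. Finally, viability (%) is scored by WST-1 absorbance at 415 nm.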
Data set [2] deals with Streptococcus pyogenes SSI-9. Nature of the data set: Antibacterial activity assay of bead-derived peptides (three concentrations). Type of data set: cell-based. The arrangement: key: +++: inhibition by the 640-fold diluted peptide solution; ++: inhibition by the 160-fold diluted solution; +: inhibition by the 40-fold diluted solution; -: no inhibition. Particulars: S. pyogenes, bead-derived peptide solution, three concentrations. The essentials:
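Bead-derived library peptide stocks in DMSO were tested undiluted and after 4- and 16-fold DMSO dilution against S. pyogenes SSI-9 (2 × 10^5 CFU/well) in cation-adjusted Mueller Hinton Broth with 5% laked horse blood. After 18 h at 37 °C, wells were scored for precipitation of grown cells.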

Data set [3] can be described thus: H+/Na+ transport assay of bead-derived peptides (one-point).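 Note: relative to parent gramicidin A activity set to 1.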 The data set is classed as biochemical. Also on record: key: relative activity; mean of two control wells = 1.00. Particulars: bead-derived peptide solution, EYPC/EYPG LUVs. In a few lines:
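Values are normalized fluorescence, with Triton X-100 defining 100% and untreated LUVs 0%, and the two control wells averaging 1.00. Vesicles carried 1.0 mM pyranine and included egg yolk phosphatidylglycerol. Peptides were incubated with them 30 min at room temperature.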

The record followed here is publication PMC7531004, “Discovery of gramicidin A analogues with altered activities by multidimensional screening of a one-bead-one-compound library” (Nature Communications, 2020).

Where a SMILES comes first, the peptide text is derived from it. [ ]: non-standard residue; d: D form. The star is where a group is joined. NHCH2CH2OH = OCCN*; For = O=C*

As for `CNC(=O)C[C@@H](NC(=O)[C@@H](NC(=O)[C@H](NC(=O)[C@H](C)NC(=O)[C@H](NC(=O)[C@H](C)NC(=O)CNC(=O)[C@@H](NC=O)C(C)C)C(C)C)C(C)C)C(C)C)C(=O)N[C@@H](Cc1c[nH]c2ccccc12)C(=O)N[C@@H](C(=O)N[C@@H](Cc1c[nH]c2ccccc12)C(=O)N[C@H](CC(C)C)C(=O)N[C@@H](Cc1c[nH]c2ccccc12)C(=O)N[C@H](CC(C)C)C(=O)N[C@@H](Cc1c[nH]c2ccccc12)C(=O)NCCO)C(C)C` [compound 2898] (For-VGA[dV]A[dV]V[dD](NHMe)W[dV]W[dL]W[dL]W-NHCH2CH2OH), in data set [1], the cell viability/% amounted to 100.0%. Besides, in data set [2], the antibacterial activity entry is “-”. The “H+/Na+ transport activity normalized against the value of 1 (1.00)” value (“H+/Na+ transport activity normalized” for short) in data set [3] is 1.13.

With `CNC(=O)C[C@@H](NC(=O)[C@@H](NC(=O)[C@H](NC(=O)[C@H](C)NC(=O)[C@@H](CC(C)C)NC(=O)[C@H](C)NC(=O)CNC(=O)[C@@H](NC=O)C(C)C)C(C)C)C(C)C)C(=O)N[C@@H](Cc1c[nH]c2ccccc12)C(=O)N[C@H](CC(C)C)C(=O)N[C@@H](Cc1c[nH]c2ccccc12)C(=O)N[C@@H](C(=O)N[C@@H](Cc1c[nH]c2ccccc12)C(=O)N[C@@H](C(=O)N[C@@H](Cc1c[nH]c2ccccc12)C(=O)NCCO)C(C)C)C(C)C` [compound 2932] (For-VGA[dL]A[dV]V[dD](NHMe)W[dL]W[dV]W[dV]W-NHCH2CH2OH), in data set [1], the cell viability/% was found to be 87.5%. Moreover, the antibacterial activity result in data set [2] was “-”. In data set [3], the “H+/Na+ transport activity normalized” value is given as 1.27.

In data set [1], `CNC(=O)C[C@@H](NC(=O)[C@@H](NC(=O)[C@@H](CC(C)C)NC(=O)[C@H](C)NC(=O)[C@@H](CC(C)C)NC(=O)[C@H](C)NC(=O)CNC(=O)[C@@H](NC=O)C(C)C)C(C)C)C(=O)N[C@@H](Cc1c[nH]c2ccccc12)C(=O)N[C@@H](C(=O)N[C@@H](Cc1c[nH]c2ccccc12)C(=O)N[C@@H](C(=O)N[C@@H](Cc1c[nH]c2ccccc12)C(=O)N[C@H](CC(C)C)C(=O)N[C@@H](Cc1c[nH]c2ccccc12)C(=O)NCCO)C(C)C)C(C)C` [compound 2951] (For-VGA[dL]A[dL]V[dD](NHMe)W[dV]W[dV]W[dL]W-NHCH2CH2OH) displayed a cell viability/% of 93.1%. Moreover, the antibacterial activity result in data set [2] was “-”. For the same compound, in data set [3], the “H+/Na+ transport activity normalized” value was 1.10.

As to `CNC(=O)C[C@@H](NC(=O)[C@@H](NC(=O)[C@@H](CC(C)C)NC(=O)[C@H](C)NC(=O)[C@@H](CC(C)C)NC(=O)[C@H](C)NC(=O)CNC(=O)[C@@H](NC=O)C(C)C)C(C)C)C(=O)N[C@@H](Cc1c[nH]c2ccccc12)C(=O)N[C@H](CC(C)C)C(=O)N[C@@H](Cc1c[nH]c2ccccc12)C(=O)N[C@@H](C(=O)N[C@@H](Cc1c[nH]c2ccccc12)C(=O)N[C@H](CC(C)C)C(=O)N[C@@H](Cc1c[nH]c2ccccc12)C(=O)NCCO)C(C)C` [compound 2953] (For-VGA[dL]A[dL]V[dD](NHMe)W[dL]W[dV]W[dL]W-NHCH2CH2OH), the cell viability/% in data set [1] came to 100.0%. The antibacterial activity result in data set [2] was “-”. The “H+/Na+ transport activity normalized” value in data set [3] stood at 1.20.

`CNC(=O)C[C@@H](NC(=O)[C@@H](NC(=O)[C@@H](CC(C)C)NC(=O)[C@H](C)NC(=O)[C@@H](CC(C)C)NC(=O)[C@H](C)NC(=O)CNC(=O)[C@@H](NC=O)C(C)C)C(C)C)C(=O)N[C@@H](Cc1c[nH]c2ccccc12)C(=O)N[C@H](CC(C)C)C(=O)N[C@@H](Cc1c[nH]c2ccccc12)C(=O)N[C@H](CC(C)C)C(=O)N[C@@H](Cc1c[nH]c2ccccc12)C(=O)N[C@@H](C(=O)N[C@@H](Cc1c[nH]c2ccccc12)C(=O)NCCO)[C@H](C)O` [compound 2967] (For-VGA[dL]A[dL]V[dD](NHMe)W[dL]W[dL]W[dT]W-NHCH2CH2OH) gave a cell viability/% in data set [1] of 100.0%. Further, in data set [2], the antibacterial activity entry is listed as “-”. For the same compound, the “H+/Na+ transport activity normalized” value in data set [3] is on record as 1.04.

`CC(C)C[C@@H](NC(=O)[C@H](Cc1c[nH]c2ccccc12)NC(=O)[C@H](NC(=O)[C@H](Cc1c[nH]c2ccccc12)NC(=O)[C@@H](CC(C)C)NC(=O)[C@H](Cc1c[nH]c2ccccc12)NC(=O)[C@H](NC(=O)[C@@H](NC(=O)[C@H](NC(=O)[C@H](C)NC(=O)[C@H](NC(=O)[C@H](C)NC(=O)CNC(=O)[C@@H](NC=O)C(C)C)C(C)C)C(C)C)C(C)C)C(C)C)C(C)C)C(=O)N[C@@H](Cc1c[nH]c2ccccc12)C(=O)NCCO` [compound 2994] (For-VGA[dV]A[dV]V[dV]W[dL]W[dV]W[dL]W-NHCH2CH2OH) yielded a cell viability/% in data set [1] of 6.3%. Further, the antibacterial activity result in data set [2] was “++”. The “H+/Na+ transport activity normalized” value in data set [3] is on record as 1.14.

In data set [1], `CC(C)C[C@@H](NC(=O)[C@H](Cc1c[nH]c2ccccc12)NC(=O)[C@H](NC(=O)[C@H](Cc1c[nH]c2ccccc12)NC(=O)[C@H](NC(=O)[C@H](Cc1c[nH]c2ccccc12)NC(=O)[C@@H](CC(C)C)NC(=O)[C@@H](NC(=O)[C@H](NC(=O)[C@H](C)NC(=O)[C@H](NC(=O)[C@H](C)NC(=O)CNC(=O)[C@@H](NC=O)C(C)C)C(C)C)C(C)C)C(C)C)C(C)C)C(C)C)C(=O)N[C@@H](Cc1c[nH]c2ccccc12)C(=O)NCCO` [compound 3111] (For-VGA[dV]A[dV]V[dL]W[dV]W[dV]W[dL]W-NHCH2CH2OH) returned a cell viability/% of 8.2%. In addition, in data set [2], the antibacterial activity entry is on record as “-”. In data set [3], the “H+/Na+ transport activity normalized” value turned out to be 1.12.

`CC(C)C[C@@H](NC(=O)[C@H](C)NC(=O)CNC(=O)[C@@H](NC=O)C(C)C)C(=O)N[C@@H](C)C(=O)N[C@@H](C(=O)N[C@H](C(=O)N[C@@H](C(=O)N[C@@H](Cc1c[nH]c2ccccc12)C(=O)N[C@@H](C(=O)N[C@@H](Cc1c[nH]c2ccccc12)C(=O)N[C@H](CC(C)C)C(=O)N[C@@H](Cc1c[nH]c2ccccc12)C(=O)N[C@H](CC(C)C)C(=O)N[C@@H](Cc1c[nH]c2ccccc12)C(=O)NCCO)C(C)C)C(C)C)C(C)C)C(C)C` [compound 3124] (For-VGA[dL]A[dV]V[dV]W[dV]W[dL]W[dL]W-NHCH2CH2OH) returned a cell viability/% in data set [1] of 0.0%. Also, the antibacterial activity entry in data set [2] is reported as “++”. Also, the “H+/Na+ transport activity normalized” value in data set [3] worked out at 1.26.

The compound `CC(C)C[C@@H](NC(=O)[C@H](C)NC(=O)CNC(=O)[C@@H](NC=O)C(C)C)C(=O)N[C@@H](C)C(=O)N[C@H](CC(C)C)C(=O)N[C@H](C(=O)N[C@H](CC(C)C)C(=O)N[C@@H](Cc1c[nH]c2ccccc12)C(=O)N[C@H](CC(C)C)C(=O)N[C@@H](Cc1c[nH]c2ccccc12)C(=O)N[C@@H](C(=O)N[C@@H](Cc1c[nH]c2ccccc12)C(=O)N[C@@H](C(=O)N[C@@H](Cc1c[nH]c2ccccc12)C(=O)NCCO)C(C)C)[C@H](C)O)C(C)C` [compound 3143] (For-VGA[dL]A[dL]V[dL]W[dL]W[dT]W[dV]W-NHCH2CH2OH) had a cell viability/% in data set [1] of 99.9%. For the same compound, in data set [2], the antibacterial activity result is “+”. For the same compound, the “H+/Na+ transport activity normalized” value in data set [3] was 1.04.
